The values below are quoted from earlier work in article PMC7366343 (Journal of the American Chemical Society, 2019).

Some results are limits rather than exact numbers.

For data set [1], the target named is hTDO (Homo sapiens, UniProt P48775). The following applies: read-out: reported IC50 for hTDO.
Chain of hTDO (P48775 whole entry): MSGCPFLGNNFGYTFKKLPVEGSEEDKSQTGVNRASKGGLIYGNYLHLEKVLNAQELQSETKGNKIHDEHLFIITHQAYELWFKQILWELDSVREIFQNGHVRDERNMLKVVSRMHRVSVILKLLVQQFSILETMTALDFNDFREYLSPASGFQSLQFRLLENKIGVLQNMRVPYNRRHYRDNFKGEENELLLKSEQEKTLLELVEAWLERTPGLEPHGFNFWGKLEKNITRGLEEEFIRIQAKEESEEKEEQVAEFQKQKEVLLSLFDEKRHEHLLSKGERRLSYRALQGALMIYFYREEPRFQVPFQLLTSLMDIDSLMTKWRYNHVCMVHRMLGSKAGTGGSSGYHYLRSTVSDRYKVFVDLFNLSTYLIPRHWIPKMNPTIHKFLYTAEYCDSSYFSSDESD

In the case of `O=C1CC(c2c[nH]c3ccc(F)cc23)C(=O)N1` (centres unmarked) [IPD, 3-(5-Fluoro-1H-indol-3-yl)pyrrolidine-2,5-dione], the blood-brain barrier crossing entry was “able to cross the blood-brain barrier”. Also, the IC50 (as a rule, the concentration that inhibits the measured activity by half) in data set [1] was above 50 µM.
